{"source": "patent EP4076431B1", "about": "“COMPOSITION AND METHOD FOR THE PREVENTION AND TREATMENT OF TYPE 2 DIABETES” (Vector Vitale IP LLC, priority 2019, dated 2021)", "key": {"[1]": {"test": "Accumulation of metals in liver and kidney tissues, intact rats", "assay_type": "in vivo", "details": "day 1 and day 7 after discontinuation; intraperitoneal", "description": "The total kidney, liver and muscle homogenates were prepared as follows. Organ excision and homogenization were carried out at a temperature of 1-4°C. Homogenization of tissues was carried out in 50 mM Tris-HCl buffer (pH 7.4) which contained 140 mM NaCl, 1 mM EDTA. The volume of the used buffer in ml was 5 times larger than the mass of isolated organs in grams. The isolated liver was perfused with chilled saline (0.9% NaCl) via the portal vein using a syringe. The minced liver was transferred to a homogenizer with a finely ground Teflon pestle and homogenized in chilled buffer. An isolated pair of kidneys was perfused with chilled saline, released from adipose tissue and minced with scissors. The minced tissue was transferred to a homogenizer with a finely ground Teflon pestle and homogenized in chilled buffer. The total kidney and liver homogenates were centrifuged at 600 g for 15 minutes. The liquid was decanted after the mince settled down and was centrifuged again at 15,000 g for 15 minutes. These two procedures allowed us to get rid of nuclear and mitochondrial debris. Aliquots of the prepared homogenates were frozen in nitrogen (Rybalchenko V.K., Koganov M.M. Structure and function of membrane 1988. - 312 pp)."}, "Glucose tolerance test": {"test": "Glucose tolerance test", "details": "dose 5 mg/kg in a volume of 2 ml, individual animals 1-5", "procedure": "Animals that had access only to water 16 hours before the start of the experiment were used in the glucose tolerance test. Rats were anesthetized with intraperitoneal injection of sodium thiopental at a dose of 40 mg/kg. 5 animals were used within the same experimental group. Basal levels of glycaemia were determined in rats, after which the animals were fed 2 ml of aqueous glucose solution at a dose of 3 g/kg. The concentration of glucose was determined 60 minutes after the start of the experiment.\nA glucose tolerance test was performed to determine a potential effect of zinc isotope on the dynamics of glucose concentration in the blood flow. Experimental procedure: laboratory animals are given intragastric injections of either normal saline solution or zinc in saline solution (5 mg/kg) in a volume of 2 ml. After that, 60 minutes after the aforementioned injections, the basal level of glucose is measured and a glucose solution is injected in an amount of 3 g/kg in a volume of 2 ml using the same route of administration. The blood glucose levels are measured again 60 minutes after injecting the glucose solution."}, "TGF": {"test_system": "TGF", "test": "Cytokine profile, immunoenzyme method, obesity model: TGF", "details": "Table 7, serum", "procedure": "(§1) Adipose tissue was crushed using cold scissors then transferred to a homogenizer with a loose-fitting Teflon pestle. The tissue was homogenized using approximately 30 strokes of the pestle in cold homogenization buffer (50 mM Tris-HCl (pH 7.4) containing 130 mM NaCl). Primary homogenate thus obtained was centrifuged at 600 g for 15 minutes. The supernatant was carefully collected and re-centrifuged at 15,000 g for 15 minutes. The supernatant was then frozen and stored at -80°C until the experiments.\n(§2) The levels of insulin, interleukins and adipokines were determined using immunoenzyme method (Halenova TI et al. RSC Adv. 2016;6: 100046-55), which was carried out in microplates with a sorption capacity in accordance with the soluble protein test procedure. The antigen solution, previously diluted with 0.1 M NaHCOs buffer, pH 9.6, to a concentration of 10 µg/ml, was incubated in the plate wells for 12 hours at 4°C. Unbound material was removed by washing the wells three times with TBS buffer, first with 0.05% Tween-20, then without Tween-20. Non-specific binding sites were blocked by adding a solution of 5% skim milk or a solution of 1% bovine serum albumin to the plate wells and incubating them for 60 minutes at 37°C. […]\n(§3) The absorbance at a wavelength of 492 nm was measured using a µQuant microplate spectrophotometer (BioTek Instruments)."}, "IL-1": {"test_system": "IL-1", "test": "Cytokine profile, immunoenzyme method, obesity model: IL-1", "details": "Table 7, serum", "procedure": "as §1, §2, §3"}, "IL-6": {"test_system": "IL-6", "test": "Cytokine profile, immunoenzyme method, obesity model: IL-6", "details": "Table 7, serum", "procedure": "as §1, §2, §3"}, "IL-4": {"test_system": "IL-4", "test": "Cytokine profile, immunoenzyme method, obesity model: IL-4", "details": "Table 7, serum", "procedure": "as §1, §2, §3"}, "IFN-γ": {"test_system": "IFN-γ", "test": "Cytokine profile, immunoenzyme method, obesity model: IFN-γ", "details": "Table 7, serum", "procedure": "as §1, §2, §3"}, "glycated hemoglobin": {"test_system": "glycated hemoglobin", "test": "Glycated hemoglobin, streptozotocin-induced type I diabetes model", "details": "Table 22; streptozotocin diabetic rats; 800 µg of zinc per animal orally, 7 doses; n = 10", "procedure": "The levels of glycated hemoglobin in whole blood of rats was measured spectrophotometrically in accordance with the established procedure. The assay was performed using a standard assay kit manufactured by Lachema (Czech Republic).\nThe method for glycated hemoglobin measurement is based on the fact that the stable form of glycohemoglobin (HbA1c) contains 1-deoxy-1-(N-valyl) fructose, which is dehydrated with phosphoric acid to form a colored complex with an absorption spectrum at 433 nm. Neither the labile form of glycohemoglobin nor fetal hemoglobin interferes with the determination of glycated hemoglobin.\nTotal hemoglobin was measured spectrophotometrically. […] The absorbance was read at a wavelength of 540 nm against the transforming solution. The total hemoglobin fraction was calculated according to the manufacturer's recommendations using the following formula: Hb = (A∗367,7)/(4,92) [formula] where Hb is total hemoglobin, A is optical density of the test sample. […]\nHemolysate was prepared by adding an anticoagulant, 3.8% solution of Na citrate diluted at 1:10, to freshly collected blood. […] The optical density of the samples was measured on a spectrophotometer at a wavelength of 443 nm against distilled water. […]\nConcentration of glycohemoglobin was expressed as µmols of fructose per g of hemoglobin (Glycated hemoglobin / Assay kit // Pliva-lachema diagnostica. - 2008. - 10003258.)."}, "collagen fibers": {"test_system": "collagen fibers", "test": "Morphometric analysis of liver fibrosis, Van Gieson staining, obesity model", "details": "rats eating a standard diet, treated", "procedure": "To carry out a histochemical reaction to determine the level of liver fibrosis, Van Gieson's picro-fuchsin method of staining was used. To do this, the sections were first soaked with water and then re-stained with Bömer's hematoxylin for 3-4 minutes. The sections were then rinsed in distilled water and stained with Van Gierson's picro-fuchsin for 3 minutes. Once stained, the sections were rinsed in distilled water, dehydrated in 96% alcohol, cleared in dioxane and xylene, and enclosed in a balsam under a coverslip. […] All parameters were measured using ImageJ software."}, "[2]": {"test": "Anthropometric values and food consumption, high-fat diet induced obesity model", "details": "Table 3", "source_text": "Before the start of the experiment, animals were maintained on a standard diet of the vivarium. To induce obesity in experimental animals, they were fed high-fat diet which consisted of standard feed (60%), lard (10%), chicken eggs (10%), sucrose (9%), peanuts (5%), dry milk (5%) and sunflower oil (1%) (1%) (see X. H. Shen et al., Exp. Biol. and Med. 235: 47-51 (2010)).\nAnimals in all groups were weighed once a week after an overnight fast. The amount of feed to be consumed by the animals was determined daily. At the end of a 10-week period of the development of obesity models, 24 hours after the last administration of the zinc isotope solution, animals were removed from their cages and decapitated.\nThe body mass index (BMI) (the ratio of body weight (g) to the square of body length (cm^2)) was calculated at the end of the experiment.\nAnimals with an initial weight of 195-205±10 g maintained on the standard diet of the vivarium before performing obesity models were used in the experiments. To induce obesity in experimental animals, they were fed high-fat diet which consisted of standard feed (60%), lard (10%), chicken eggs (10%), sucrose (9%), peanuts (5%), dry milk (5%) and sunflower oil (1%), Shen X. et al., Experimental Biology and Medicine. - 2010. - Nº 235. - P. 47-51.\nAnimals in all groups were weighed once a week after an overnight fast. The amount of feed to be consumed by the animals was determined daily.\nThe body mass index (BMI) (the ratio of body weight (g) to the square of body length (cm2)) was calculated at the end of the experiment."}, "[3]": {"test": "Blood glucose, streptozotocin-induced type I diabetes model, oral administration", "details": "Table 22; streptozotocin diabetic rats; 800 µg of zinc per animal orally, 7 doses every other day; n = 10", "procedure": "Number of animals: 10 (males). Animals were housed in cages, 4 per cage, and provided ad libitum access to food and water. To induce diabetes in animals, each animal was given a single injection of streptozotocin solution at a dose of 6 mg per 100 g of animal weight dissolved in 10 mM citrate buffer (pH 4.5) intraperitoneally. The fasted animals were tested for sufficient levels of glycemia two days after induction of diabetes. Rats with blood glucose concentrations within the range >20 mmol/l were used in the experiments.\n24 hours later, 7 doses of the test substance were administered to the animals orally. Frequency of administration - every other day.\nDose of administration - 800 µg of zinc per animal.\nThe glucose concentration in whole blood was measured by the glucose oxidase method using a GlucoDr Auto AGM-4000 blood glucose meter (Allmedicus Co., Ltd., Korea). All procedures were performed according to the manufacturer's instructions\nType I experimental diabetes was induced by a single intraperitoneal injection of streptozotocin solution at a dose of 6 mg per 100 g of animal weight dissolved in 10 mM citrate buffer (pH 4.5). The rats of the control group were administered 10 mM citrate buffer (pH 4.5) by the aforementioned method. The whole blood glucose concentrations were measured two days after induction of diabetes in rats."}, "[4]": {"details": "C+zinc: control rats, standard diet"}, "[5]": {"details": "DIO+zinc: diet-induced obesity rats"}}, "note": "Values joined by “and” are separate entries in the source; they are usually repeats but may differ in a detail not shown here. Equal values may be shown once."}
{"compound": "CC(=O)[O-].CC(=O)[O-].[Zn+2]", "note": "[Zn acetate, Zn acetate (Zn(CH3COO)2), reference compound]", "values": [{"measurement": "accumulation of other metals (manganese, copper) in kidney and liver tissues", "setting": "[1]", "value": "within the same concentrations as in the control group of animals"}, {"measurement": "accumulation of zinc in kidney and liver tissues", "setting": "[1]", "value": "significantly increased"}, {"measurement": "60 min (1 h after glucose administration)", "setting": "Glucose tolerance test; Table 2, blood glucose after glucose 3 g/kg", "value": "7,2 (2×) and 6,9 and 7,3 and 6,8"}, {"measurement": "0 min (1 h after effector administration)", "setting": "Glucose tolerance test; Table 2, blood glucose before glucose load, fast overnight", "value": "4,6 and 5,2 (2×) and 4,9 and 5,1"}]}
{"compound": "Zinc asparaginate [^64Zne]", "values": [{"measurement": "accumulation of other metals (manganese, copper) in kidney and liver tissues", "setting": "[1]", "value": "within the same concentrations as in the control group of animals"}, {"measurement": "accumulation of zinc in kidney and liver tissues", "setting": "[1]", "value": "significantly increased"}, {"measurement": "Levels, Anti-inflammatory cytokines, TGF", "setting": "TGF; C+^64Zne", "value": "4.1±0.4", "unit": "RU/mg protein"}, {"measurement": "Levels, Anti-inflammatory cytokines, TGF", "setting": "TGF; DIO+^64Zne", "value": "5.7±0.3 # RU/mg protein"}, {"measurement": "Levels, Pro-inflammatory cytokines, IL-1", "setting": "IL-1; C+^64Zne: control rats", "value": "3.5±0.7", "unit": "RU/mg protein"}, {"measurement": "Levels, Pro-inflammatory cytokines, IL-1", "setting": "IL-1; DIO+^64Zne: diet-induced obesity rats", "value": "4.2±0.4", "unit": "RU/mg protein"}, {"measurement": "Levels, Pro-inflammatory cytokines, IL-6", "setting": "IL-6; C+^64Zne", "value": "4.3±0.2", "unit": "RU/mg protein"}, {"measurement": "Levels, Pro-inflammatory cytokines, IL-6", "setting": "IL-6; DIO+^64Zne", "value": "5.1±0.4", "unit": "RU/mg protein"}, {"measurement": "Levels, Anti-inflammatory cytokines, IL-4", "setting": "IL-4; C+^64Zne", "value": "4.6±0.8", "unit": "RU/mg protein"}, {"measurement": "Levels, Anti-inflammatory cytokines, IL-4", "setting": "IL-4; DIO+^64Zne", "value": "5.6±1.6", "unit": "RU/mg protein"}, {"measurement": "Levels, Pro-inflammatory cytokines, IFN-γ", "setting": "IFN-γ; C+^64Zne", "value": "4.6±0.6", "unit": "RU/mg protein"}, {"measurement": "Levels, Pro-inflammatory cytokines, IFN-γ", "setting": "IFN-γ; DIO+^64Zne", "value": "4.1±1.2", "unit": "RU/mg protein"}, {"measurement": "Glycated hemoglobin", "setting": "glycated hemoglobin", "value": "0,51 ± 0,05 µmol fructose/g Hb"}, {"measurement": "increase in the area of deposition of collagen fibers", "setting": "collagen fibers", "value": 2, "unit": "fold"}, {"measurement": "Amount of food consumed", "setting": "[2]; [4]", "value": 32, "unit": "g/day"}, {"measurement": "Calorie content of food", "setting": "[2]; [4]", "value": 490, "unit": "kJ/day"}, {"measurement": "Weight gain as of the end of the experiment", "setting": "[2]; [4]", "value": 59, "unit": "%"}, {"measurement": "BMI", "setting": "[2]; C+zinc: control rats, standard diet, ^64Zne administration", "value": 0.59, "unit": "g/cm^2"}, {"measurement": "Amount of food consumed", "setting": "[2]; [5]", "value": 29, "unit": "g/day"}, {"measurement": "Calorie content of food", "setting": "[2]; [5]", "value": 823, "unit": "kJ/day"}, {"measurement": "Weight gain as of the end of the experiment", "setting": "[2]; [5]", "value": 62, "unit": "%"}, {"measurement": "BMI", "setting": "[2]; DIO+zinc: diet-induced obesity rats, ^64Zne 2.25 mg/ml, 2 ml intragastrically every third day, 10th week", "value": 0.65, "unit": "g/cm^2"}, {"measurement": "Glucose", "setting": "[3]", "value": "20 ± 3", "unit": "mM"}]}
